Assay results as given in the NIST ThermoML archive (doi:10.1021/je800251v).
± gives the expanded uncertainty stated by the source.

Details: Liquid

CCCCC(=O)OCC [ethyl pentanoate]
Details | mass density [kg/m3]
298.15 K, 100 kPa | 870.7 ± 0.8
298.15 K, 1000 kPa | 871.5 ± 0.9
298.15 K, 2000 kPa | 872.4 ± 0.9
298.15 K, 2780 kPa | 873 ± 0.9
298.15 K, 3000 kPa | 873.2 ± 0.9
298.15 K, 5000 kPa | 875.1 ± 1
298.15 K, 10000 kPa | 879.4 ± 1.2
298.15 K, 15000 kPa | 883.4 ± 1.3
298.15 K, 20000 kPa | 887.3 ± 1.5
298.15 K, 25000 kPa | 891 ± 1.6
298.15 K, 30000 kPa | 894.6 ± 1.7
298.15 K, 35000 kPa | 898.1 ± 1.8
303.15 K, 100 kPa | 865.5 ± 0.8
303.15 K, 1000 kPa | 866.4 ± 0.9
303.15 K, 2000 kPa | 867.4 ± 0.9
303.15 K, 2780 kPa | 868.1 ± 0.9
303.15 K, 3000 kPa | 868.3 ± 0.9
303.15 K, 5000 kPa | 870.1 ± 1
303.15 K, 10000 kPa | 874.5 ± 1.2
303.15 K, 15000 kPa | 878.7 ± 1.3
303.15 K, 20000 kPa | 882.6 ± 1.5
303.15 K, 25000 kPa | 886.5 ± 1.6
303.15 K, 30000 kPa | 890.2 ± 1.8
303.15 K, 35000 kPa | 893.8 ± 1.9
308.15 K, 100 kPa | 860.3 ± 0.9
308.15 K, 1000 kPa | 861.2 ± 0.9
308.15 K, 2000 kPa | 862.1 ± 0.9
308.15 K, 2780 kPa | 862.9 ± 1
308.15 K, 3000 kPa | 863.1 ± 1
308.15 K, 5000 kPa | 865 ± 1
308.15 K, 10000 kPa | 869.5 ± 1.2
308.15 K, 15000 kPa | 873.8 ± 1.4
308.15 K, 20000 kPa | 877.8 ± 1.5
308.15 K, 25000 kPa | 881.8 ± 1.7
308.15 K, 30000 kPa | 885.6 ± 1.8
308.15 K, 35000 kPa | 889.2 ± 1.9
313.15 K, 100 kPa | 855 ± 0.9
313.15 K, 1000 kPa | 855.9 ± 0.9
313.15 K, 2000 kPa | 856.9 ± 0.9
313.15 K, 2780 kPa | 857.7 ± 1
313.15 K, 3000 kPa | 857.9 ± 1
313.15 K, 5000 kPa | 859.9 ± 1.1
313.15 K, 10000 kPa | 864.5 ± 1.2
313.15 K, 15000 kPa | 868.9 ± 1.4
313.15 K, 20000 kPa | 873 ± 1.6
313.15 K, 25000 kPa | 877 ± 1.7
313.15 K, 30000 kPa | 880.9 ± 1.9
313.15 K, 35000 kPa | 884.6 ± 2
318.15 K, 100 kPa | 849.8 ± 0.9
318.15 K, 1000 kPa | 850.6 ± 0.9
318.15 K, 2000 kPa | 851.7 ± 1
318.15 K, 2780 kPa | 852.4 ± 1
318.15 K, 3000 kPa | 852.7 ± 1
318.15 K, 5000 kPa | 854.6 ± 1.1
318.15 K, 10000 kPa | 859.4 ± 1.3
318.15 K, 15000 kPa | 863.9 ± 1.5
318.15 K, 20000 kPa | 868.2 ± 1.6
318.15 K, 25000 kPa | 872.3 ± 1.8
318.15 K, 30000 kPa | 876.3 ± 1.9
318.15 K, 35000 kPa | 880.1 ± 2.1
323.15 K, 100 kPa | 844.4 ± 0.9
323.15 K, 1000 kPa | 845.3 ± 0.9
323.15 K, 2000 kPa | 846.4 ± 1
323.15 K, 2780 kPa | 847.2 ± 1
323.15 K, 3000 kPa | 847.4 ± 1
323.15 K, 5000 kPa | 849.4 ± 1.1
323.15 K, 10000 kPa | 854.3 ± 1.3
323.15 K, 15000 kPa | 859 ± 1.5
323.15 K, 20000 kPa | 863.4 ± 1.7
323.15 K, 25000 kPa | 867.6 ± 1.8
323.15 K, 30000 kPa | 871.7 ± 2
323.15 K, 35000 kPa | 875.5 ± 2.1
328.15 K, 100 kPa | 839.1 ± 0.9
328.15 K, 1000 kPa | 840 ± 1
328.15 K, 2000 kPa | 841.1 ± 1
328.15 K, 2780 kPa | 842 ± 1
328.15 K, 3000 kPa | 842.3 ± 1
328.15 K, 5000 kPa | 844.4 ± 1.1
328.15 K, 10000 kPa | 849.4 ± 1.3
328.15 K, 15000 kPa | 854.2 ± 1.5
328.15 K, 20000 kPa | 858.7 ± 1.7
328.15 K, 25000 kPa | 863 ± 1.9
328.15 K, 30000 kPa | 867.1 ± 2
328.15 K, 35000 kPa | 871.1 ± 2.2
333.15 K, 100 kPa | 833.7 ± 0.9
333.15 K, 1000 kPa | 834.7 ± 1
333.15 K, 2000 kPa | 836 ± 1
333.15 K, 2780 kPa | 836.9 ± 1
333.15 K, 3000 kPa | 837.1 ± 1.1
333.15 K, 5000 kPa | 839.3 ± 1.1
333.15 K, 10000 kPa | 844.5 ± 1.4
333.15 K, 15000 kPa | 849.5 ± 1.6
333.15 K, 20000 kPa | 854.1 ± 1.7
333.15 K, 25000 kPa | 858.6 ± 1.9
333.15 K, 30000 kPa | 862.9 ± 2.1
333.15 K, 35000 kPa | 867 ± 2.2
338.15 K, 100 kPa | 828.4 ± 0.9
338.15 K, 1000 kPa | 829.5 ± 1
338.15 K, 2000 kPa | 830.7 ± 1
338.15 K, 2780 kPa | 831.5 ± 1.1
338.15 K, 3000 kPa | 831.8 ± 1.1
338.15 K, 5000 kPa | 834 ± 1.2
338.15 K, 10000 kPa | 839.4 ± 1.4
338.15 K, 15000 kPa | 844.5 ± 1.6
338.15 K, 20000 kPa | 849.3 ± 1.8
338.15 K, 25000 kPa | 853.9 ± 2
338.15 K, 30000 kPa | 858.2 ± 2.1
338.15 K, 35000 kPa | 862.4 ± 2.3
343.15 K, 100 kPa | 823 ± 1
343.15 K, 1000 kPa | 824.1 ± 1
343.15 K, 2000 kPa | 825.3 ± 1
343.15 K, 2780 kPa | 826.2 ± 1.1
343.15 K, 3000 kPa | 826.5 ± 1.1
343.15 K, 5000 kPa | 828.8 ± 1.2
343.15 K, 10000 kPa | 834.4 ± 1.4
343.15 K, 15000 kPa | 839.6 ± 1.6
343.15 K, 20000 kPa | 844.5 ± 1.8
343.15 K, 25000 kPa | 849.2 ± 2
343.15 K, 30000 kPa | 853.7 ± 2.2
343.15 K, 35000 kPa | 858 ± 2.3
348.15 K, 100 kPa | 817.7 ± 1
348.15 K, 1000 kPa | 818.7 ± 1
348.15 K, 2000 kPa | 820 ± 1.1
348.15 K, 2780 kPa | 821 ± 1.1
348.15 K, 3000 kPa | 821.3 ± 1.1
348.15 K, 5000 kPa | 823.7 ± 1.2
348.15 K, 10000 kPa | 829.4 ± 1.4
348.15 K, 15000 kPa | 834.8 ± 1.7
348.15 K, 20000 kPa | 839.9 ± 1.9
348.15 K, 25000 kPa | 844.7 ± 2.1
348.15 K, 30000 kPa | 849.3 ± 2.2
348.15 K, 35000 kPa | 853.6 ± 2.4
353.15 K, 100 kPa | 812.2 ± 1
353.15 K, 1000 kPa | 813.3 ± 1
353.15 K, 2000 kPa | 814.6 ± 1.1
353.15 K, 2780 kPa | 815.6 ± 1.1
353.15 K, 3000 kPa | 815.9 ± 1.1
353.15 K, 5000 kPa | 818.4 ± 1.2
353.15 K, 10000 kPa | 824.3 ± 1.5
353.15 K, 15000 kPa | 829.9 ± 1.7
353.15 K, 20000 kPa | 835.1 ± 1.9
353.15 K, 25000 kPa | 840 ± 2.1
353.15 K, 30000 kPa | 844.7 ± 2.3
353.15 K, 35000 kPa | 849.1 ± 2.5
363.15 K, 100 kPa | 801.2 ± 1
363.15 K, 1000 kPa | 802.5 ± 1.1
363.15 K, 2000 kPa | 803.9 ± 1.1
363.15 K, 2780 kPa | 805 ± 1.2
363.15 K, 3000 kPa | 805.5 ± 1.2
363.15 K, 5000 kPa | 808.1 ± 1.3
363.15 K, 10000 kPa | 814.6 ± 1.5
363.15 K, 15000 kPa | 820.5 ± 1.8
363.15 K, 20000 kPa | 826 ± 2
363.15 K, 25000 kPa | 831.2 ± 2.2
363.15 K, 30000 kPa | 836 ± 2.4
363.15 K, 35000 kPa | 840.8 ± 2.6
373.15 K, 100 kPa | 790.7 ± 1
373.15 K, 1000 kPa | 792 ± 1.1
373.15 K, 2000 kPa | 793.5 ± 1.2
373.15 K, 2780 kPa | 794.7 ± 1.2
373.15 K, 3000 kPa | 795 ± 1.2
373.15 K, 5000 kPa | 797.9 ± 1.3
373.15 K, 10000 kPa | 804.8 ± 1.6
373.15 K, 15000 kPa | 810.9 ± 1.8
373.15 K, 20000 kPa | 816.7 ± 2.1
373.15 K, 25000 kPa | 822.2 ± 2.3
373.15 K, 30000 kPa | 827.3 ± 2.5
373.15 K, 35000 kPa | 832.3 ± 2.7
383.15 K, 100 kPa | 779.9 ± 1.1
383.15 K, 1000 kPa | 781.3 ± 1.1
383.15 K, 2000 kPa | 783 ± 1.2
383.15 K, 2780 kPa | 784.2 ± 1.2
383.15 K, 3000 kPa | 784.5 ± 1.2
383.15 K, 5000 kPa | 787.6 ± 1.4
383.15 K, 10000 kPa | 795 ± 1.6
383.15 K, 15000 kPa | 801.5 ± 1.9
383.15 K, 20000 kPa | 807.6 ± 2.1
383.15 K, 25000 kPa | 813.4 ± 2.4
383.15 K, 30000 kPa | 818.9 ± 2.6
383.15 K, 35000 kPa | 824 ± 2.8
393.15 K, 100 kPa | 769 ± 1.1
393.15 K, 1000 kPa | 770.5 ± 1.2
393.15 K, 2000 kPa | 772.3 ± 1.2
393.15 K, 2780 kPa | 773.6 ± 1.3
393.15 K, 3000 kPa | 774.1 ± 1.3
393.15 K, 5000 kPa | 777.4 ± 1.4
393.15 K, 10000 kPa | 785.1 ± 1.7
393.15 K, 15000 kPa | 791.6 ± 2
393.15 K, 20000 kPa | 797.7 ± 2.2
393.15 K, 25000 kPa | 803.5 ± 2.5
393.15 K, 30000 kPa | 809 ± 2.7
393.15 K, 35000 kPa | 814 ± 2.9
